The record followed here is EP0906294B1 (WARNER-LAMBERT COMPANY, priority 1996, dated 1997).

The target of assay [1] is T1, human recombinant dopamine D4.2 receptor subtype (Homo sapiens, UniProt P21917, DEL265-296).
T1 sequence (P21917 with tags, fused parts or gaps DEL265-296): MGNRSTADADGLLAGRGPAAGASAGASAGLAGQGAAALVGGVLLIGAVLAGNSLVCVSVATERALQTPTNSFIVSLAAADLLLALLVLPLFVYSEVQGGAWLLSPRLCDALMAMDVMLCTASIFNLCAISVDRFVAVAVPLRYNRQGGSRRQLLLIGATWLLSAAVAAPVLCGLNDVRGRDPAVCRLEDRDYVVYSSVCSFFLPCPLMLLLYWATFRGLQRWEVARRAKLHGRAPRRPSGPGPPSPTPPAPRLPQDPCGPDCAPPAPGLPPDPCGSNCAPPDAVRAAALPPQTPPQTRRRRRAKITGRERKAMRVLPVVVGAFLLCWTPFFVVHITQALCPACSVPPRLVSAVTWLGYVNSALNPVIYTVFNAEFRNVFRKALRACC
Briefly: Receptor binding assay, [3H]spiperone competition, D4.2. As to conditions: for D2/D4 Ratio: ratio of D2 Ki to D4 Ki. The protocol:
(§1) The D2 receptor cDNA was subcloned into an expression vector, pRc/CMV. The plasmids were transfected by electroporation into CHO K1 cells. A single stable transfectant, resistant to the antibiotic G418, was isolated and selected for use in the binding studies.
(§2) Cells were grown until confluent, after which growth medium was removed and replaced with 0.02% ethylene diamine tetracetate (EDTA) in a phosphate-buffered saline solution (Sigma Chemical Co., St. Louis, Missouri) and scraped from the flasks. The cells were centrifuged at about 1000 × g for 10 minutes at […] and then resuspended in TEM buffer (25 mM Tris-HCl, pH 7.4, 5 mM EDTA, and 6 mM MgCl2) for D2 or the D4.2 buffer (50 mM Tris-HCl, pH 7.4, 5 mM EDTA, 1.5 mM CaCl2, 5 mM KCl, and 120 mM NaCl) and homogenized. The membranes were pelleted by centrifugation at 20,000 × g at […] for 20 minutes. Then the pellets were resuspended in appropriate buffer at 1 mL/flask and stored at -70°C until used in the receptor binding assay.
(§3) After 60 minutes incubation at 25°C, the incubations were terminated by rapid filtration through Whatmann GF/B glass fibre filters (soaked for 1 hour in 0.5% polyethylenimine) on a -cell harvester, with three washes of 1 mL ice-cold buffer. Individual filter disks containing the bound ligand were placed in counting vials with 4 mL of scintillation fluid (Ready Gel, Beckman Instrument Inc., Fullerton, California) and then counted in a Beckman LS-6800 liquid scintillation counter at an efficiency of 45%. Nonspecific binding was defined in presence of […] of haloperidol.
(§4) Saturation and competition binding data were analyzed using an iterative nonlinear least-square curve-fitting Ligand program. […] Experimental compounds were made up as stock solutions in dimethyl sulfoxide (DMSO). […] Each observation was carried out in triplicate. To allow these calculations, Ki values were measured for the interaction of various ligands with the receptor. […]

Assay [2] has as its target human dopamine D2 (Long form) receptors (Homo sapiens, UniProt P14416). As to the kind of experiment: Receptor binding assay, [3H]spiperone competition, D2. The protocol:
as §1, §2, §3, §4

The mark [3] stands for this setting: CHO K1 cell membranes, 0.2 nM [3H]spiperone, 60 minutes at 25°C, apparent Ki from IC50 by Cheng and Prusoff.
Setting [4] is: CHO K1 cell membranes, 0.2 nM [3H]spiperone, 60 minutes at 25°C, apparent Ki from IC50 by Cheng and Prusoff, read-out: D4 (Ki).

Read-outs that look alike come from different tables or passages of the source.

Sequence of human dopamine D2 (Long form) receptors (P14416 whole entry): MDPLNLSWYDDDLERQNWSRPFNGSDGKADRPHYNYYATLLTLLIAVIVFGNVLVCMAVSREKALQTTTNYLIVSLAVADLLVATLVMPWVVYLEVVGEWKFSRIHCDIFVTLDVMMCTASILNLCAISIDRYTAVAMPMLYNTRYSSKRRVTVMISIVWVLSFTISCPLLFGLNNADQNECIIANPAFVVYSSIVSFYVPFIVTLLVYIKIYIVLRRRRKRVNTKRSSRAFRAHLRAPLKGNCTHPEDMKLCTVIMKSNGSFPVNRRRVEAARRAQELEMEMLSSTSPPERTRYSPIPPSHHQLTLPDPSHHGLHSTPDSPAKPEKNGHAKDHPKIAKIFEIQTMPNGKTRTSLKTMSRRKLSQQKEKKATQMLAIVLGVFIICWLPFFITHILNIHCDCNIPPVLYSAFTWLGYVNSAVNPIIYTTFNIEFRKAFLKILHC

Consider `Cc1ccc(C2CCN(Cc3ccc4c(c3)OCC(=O)N4)CC2)cc1` [Example 41, 7-(4-p-Tolyl-piperidin-1-ylmethyl)-4H-benzo[1,4]oxazin-3-one], for which the “D2/D4 Ratio” value in assay [1] came out at 110.5. For the same molecule, the Ki in assay [1] (read-out: D4 (Ki)) stood at 2.6 nM; in assay [2] (setting [3]), 287 nM. Regarding `COc1ccc(C2CCN(Cc3ccc4c(c3)OCC(=O)N4)CC2)cc1` [Example 38, 7-[4-(4-Methoxy-phenyl)-piperidin-1-ylmethyl]-4H-benzo[1,4]oxazin-3-one], the “D2/D4 Ratio” value in assay [1] worked out at 168.1. In addition, the Ki came out at 6.7 nM in assay [1] (read-out: D4 (Ki)) and 1130 nM in assay [2] (setting [3]). On to `O=C1COc2ccc(CN3CCN(c4ccc(C(F)(F)F)cc4)CC3)cc2N1` [Example 31, 6-[4-(4-Trifluoromethyl-phenyl)-piperazin-l-ylmethyl] -4H-benzo[1,4]oxazin-3-one], for which, in assay [1] (setting [4]), the Ki stood at 173 nM. For `O=C1COc2cc(CN3CCN(c4ccccc4)CC3)ccc2N1` [Example 13, 7-(4-phenyl-piperazin-1-ylmethyl)-4H-benzo[1,4]oxazine-3-one], the Ki in assay [1] (read-out: D4 (Ki)) worked out at 6.09 nM; in assay [2] (setting [3]) it was 129 nM. Regarding `O=C1COc2cc(CN3CCN(c4ccc(Cl)cc4)CC3)ccc2N1` [Example 35, 7-[4-(4-Chloro-phenyl)-piperazin-1-ylmethyl]-4H-benzo[1,4]oxazin-3-one], the Ki is 4.68 nM in assay [1] and 620 nM in assay [2]. The “D2/D4 Ratio” value in assay [1] is 132.5. With `NS(=O)(=O)c1ccc(N2CCN(Cc3ccc4c(c3)NC(=O)CO4)CC2)cc1` [Example 4, 4-[4-(3-oxo-3,4-dihydro-2H-benzo[1,4]-oxazin-6-ylmethyl)-piperazin-1-yl]-benzenesulfonamide], in assay [1] (read-out: D4 (Ki)), the Ki came to 23.6 nM. With `Cc1ccc(N2CCN(Cc3ccc4c(c3)OCC(=O)N4)CC2)cc1C` [Example 14, 7-[4-(3,4-dimethyl-phenyl)-piperazin-1-ylmethyl]-4H-benzo[1,4]oxazine-3-one], in assay [2] (setting [3]), the Ki amounted to 346 nM. Regarding `COc1ccc(C2CCN(Cc3ccc4c(c3)NC(=O)CO4)CC2)cc1` [Example 37, 6-[4-(4-Methoxy-phenyl) -piperidin-1-ylmethyl]-4H-benzo[1,4]oxazin-3-one], the Ki in assay [2] (setting [3]) was found to be 698 nM. As for `O=C1COc2ccc(CN3CCN(c4ccccc4)CC3)cc2N1` [Example 8, 6-[4-phenyl-piperazin-1-ylmethyl]-4H-benzo[1,4]oxazin-3-one], the Ki in assay [1] (read-out: D4 (Ki)) was determined as 18.3 nM. Turning to `Cc1ccc(C2CCN(Cc3ccc4c(c3)OCC(=O)N4)CC2)cc1C` [Example 36, 7-[4-(3,4-Dimethyl-phenyl)-piperidin-1-ylmethyl]-4H-benzo[1,4]oxazin-3-one], the results for the Ki in assay [1] (read-out: D4 (Ki)) and in assay [2] (setting [3]) were 2.61 nM and 610 nM, respectively. For the molecule `COc1ccc(N2CCN(Cc3ccc4c(c3)OCC(=O)N4)CC2)cc1` [Example 34, 7-[4-(4-Methoxy-phenyl)-piperazin-1-ylmethyl]-4H-benzo[1,4]oxazin-3-one], the “D2/D4 Ratio” value in assay [1] amounted to 1176.5. The values for the Ki in assay [1] (read-out: D4 (Ki)) and in assay [2] (setting [3]) were 5 nM and at least 5880 nM, respectively. On to `O=C1COc2ccc(CN3CCN(c4ccc(Cl)cc4)CC3)cc2N1` [Example 32, 6-[4-(4-Chloro-phenyl)-piperazin-1-ylmethyl]-4H-benzo [1,4]oxazin-3-one], for which the Ki in assay [1] (read-out: D4 (Ki)) is 62.5 nM. On to `Cc1ccc(C2CCN(Cc3ccc4c(c3)NC(=O)CO4)CC2)cc1` [Example 16, 6-(4-p-tolyl-piperidin-1-ylmethyl)-4H-benxo[1,4]oxazin-3-one], for which the Ki in assay [1] (setting [4]) was 2.84 nM.
